According to patent US20230117324A1, “OXAZINE MONOACYLGLYCEROL LIPASE (MAGL) INHIBITORS” (Hoffmann-La Roche Inc., priority 2018, published 2023):

Target: T1, MAGL (Homo sapiens, UniProt Q99685)
T1 sequence (Q99685 1-303): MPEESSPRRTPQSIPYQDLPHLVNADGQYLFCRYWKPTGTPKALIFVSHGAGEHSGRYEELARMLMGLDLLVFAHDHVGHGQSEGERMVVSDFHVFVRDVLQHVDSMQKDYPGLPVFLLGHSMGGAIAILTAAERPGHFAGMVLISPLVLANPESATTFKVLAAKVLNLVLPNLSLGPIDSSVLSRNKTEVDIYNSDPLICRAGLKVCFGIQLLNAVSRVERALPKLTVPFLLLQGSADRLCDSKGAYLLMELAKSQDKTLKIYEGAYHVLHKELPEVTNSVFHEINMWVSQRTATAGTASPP
Test: MAGL inhibition, 2-AG assay (hydrolysis of 2-arachidonoylglycerol, arachidonic acid by mass spectrometry)
Type: biochemical
Details: 2-AG assay (footnote [b])
Method in brief: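 Human MAGL […] was preincubated 15 min at RT with compound ([…], 3-fold steps) in 50 mM Tris, 1 mM EDTA, 0.01% Tween. 2-AG (8 μM) was then added for 30 min at RT. Arachidonic acid was quantified by RapidFire SPE–triple quadrupole MS in negative ESI as its ratio to a d8-arachidonic acid standard.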

SMILES | IC50 [nM]
O=C1CO[C@H]2CCN(C(=O)N3CCC(c4ccnc(C5CC5)c4)CC3)C[C@H]2N1 [Example 61, (4aR,8aS)-6-(4-(2-Cyclopropylpyridin-4-yl)piperidine-1-carbonyl)hexahydro-2H-pyrido[4,3-b][1,4]oxazin-3(4H)-one] | 569
O=C1CO[C@H]2CCN(C(=O)N3CCC(C(Oc4ccc(F)cc4Cl)C(F)(F)F)CC3)C[C@H]2N1 (stereo partly drawn) [Example 81, (4aR,8aS)-6-(4-(1-(2-Chloro-4-fluorophenoxy)-2,2,2-trifluoroethyl)piperidine-1-carbonyl)hexahydro-2H-pyrido[4,3-b][1,4]oxazin-3(4H)-one] | 3
CC(c1ccc(C(F)(F)F)cc1)C1CN(C(=O)N2CC[C@@H]3OCC(=O)N[C@@H]3C2)C1 (stereo partly drawn) [Example 83, (4aR,8aS)-6-[3-[1-[4-(Trifluoromethyl)phenyl]ethyl]azetidine-1-carbonyl]-4,4a,5,7,8,8a-hexahydropyrido[4,3-b][1,4]oxazin-3-one] | 114
O=C1CO[C@H]2CCN(C(=O)N3CC(C(c4ccccc4)c4ccccc4)C3)C[C@H]2N1 [Example 86, (4aR,8aS)-6-(3-Benzhydrylazetidine-1-carbonyl)hexahydro-2H-pyrido[4,3-b][1,4]oxazin-3(4H)-one] | 155
CC(OC1CN(C(=O)N2CC[C@@H]3OCC(=O)N[C@@H]3C2)C1)c1ccc(C(F)(F)F)cc1 (stereo partly drawn) [Example 90, (4aR,8aS)-6-[3-[1-[4-(Trifluoromethyl)phenyl]ethoxy]azetidine-1-carbonyl]-4,4a,5,7,8,8a-hexahydropyrido[4,3-b][1,4]oxazin-3-one] | 49
CC(Oc1ccc(C(F)(F)F)cc1F)C1CN(C(=O)N2CC[C@@H]3OCC(=O)N[C@@H]3C2)C1 (stereo partly drawn) [Example 91, (4aR,8aS)-6-(3-(1-(2-Fluoro-4-(trifluoromethyl)phenoxy)ethyl)azetidine-1-carbonyl)hexahydro-2H-pyrido[4,3-b][1,4]oxazin-3(4H)-one] | 15
CC(Oc1ccc(C(F)(F)F)cc1)C1CN(C(=O)N2CC[C@@H]3OCC(=O)N[C@@H]3C2)C1 (stereo partly drawn) [Example 92, (4aR,8aS)-6-(3-(1-(4-(Trifluoromethyl)phenoxy)ethyl)azetidine-1-carbonyl)hexahydro-2H-pyrido[4,3-b][1,4]oxazin-3(4H)-one] | 20
CC(OC1CCN(C(=O)N2CC[C@@H]3OCC(=O)N[C@@H]3C2)CC1)c1ccc(C(F)(F)F)cc1 (stereo partly drawn) [Example 93, (4aR,8aS)-6-[4-[1-[4-(Trifluoromethyl)phenyl]ethoxy]piperidine-1-carbonyl]-4,4a,5,7,8,8a-hexahydropyrido [4,3-b][1,4]oxazin-3-one] | 73
Cc1cc(C2CCN(C(=O)N3CC[C@@H]4OCC(=O)N[C@@H]4C3)CC2)cnc1C(F)(F)F [Example 101, (4aR,8aS)-6-(4-(5-Methyl-6-(trifluoromethyl)pyridin-3-yl)piperidine-1-carbonyl)hexahydro-2H-pyrido[4,3-b][1,4]oxazin-3(4H)-one] | 219
O=C1CO[C@H]2CCN(C(=O)N3CCC(C(c4ccc(F)cc4)c4nc(C(F)(F)F)no4)CC3)C[C@H]2N1 (stereo partly drawn) [Example 102, (4aR,8aS)-6-(4-((4-Fluorophenyl)(3-(trifluoromethyl)-1,2,4-oxadiazol-5-yl)methyl)piperidine-1-carbonyl)hexahydro-2H-pyrido[4,3-b][1,4]oxazin-3(4H)-one] | 5
O=C1CO[C@H]2CCN(C(=O)N3CCC(c4ccnc5c4CCCC5)CC3)C[C@H]2N1 [Example 107, (4aR,8aS)-6-(4-(5,6,7,8-Tetrahydroquinolin-4-yl)piperidine-1-carbonyl)hexahydro-2H-pyrido[4,3-b][1,4]oxazin-3(4H)-one] | 576
O=C1CO[C@H]2CCN(C(=O)N3CC(c4ccc(Br)cc4)C3)C[C@H]2N1 [Example 110, (4aR,8aS)-6-[3-(4-bromophenyl)azetidine-1-carbonyl]-4,4a,5,7,8,8a-hexahydropyrido[4,3-b][1,4]oxazin-3-one] | 29
O=C1CO[C@H]2CCN(C(=O)N3CC(c4ccc(-c5ccc(Cl)cc5)cc4)C3)C[C@H]2N1 [Example 111, (4aR,8aS)-6-(3-(4′-Chloro-[1,1′-biphenyl]-4-yl)azetidine-1-carbonyl)hexahydro-2H-pyrido[4,3-b][1,4]oxazin-3(4H)-one] | 0.4
O=C1CO[C@H]2CCN(C(=O)N3CC(c4ccc(-c5ccccc5Cl)cc4)C3)C[C@H]2N1 [Example 112, (4aR,8aS)-6-(3-(2′-Chloro-[1,1′-biphenyl]-4-yl)azetidine-1-carbonyl)hexahydro-2H-pyrido[4,3-b][1,4]oxazin-3(4H)-one] | 0.1
O=C1CO[C@H]2CCN(C(=O)N3CC(c4ccc(-c5ccc(Cl)cc5Cl)cc4)C3)C[C@H]2N1 [Example 113, (4aR,8aS)-6-(3-(2′,4′-Dichloro-[1,1′-biphenyl]-4-yl)azetidine-1-carbonyl)hexahydro-2H-pyrido[4,3-b][1,4]oxazin-3(4H)-one] | 0.04
O=C1CO[C@H]2CCN(C(=O)N3CC(c4ccc(OC(F)(F)F)cc4)C3)C[C@H]2N1 [Example 120, (4aR,8aS)-6-[3-[4-(Trifluoromethoxy)phenyl]azetidine-1-carbonyl]-4,4a,5,7,8,8a-hexahydropyrido[4,3-b][1,4]oxazin-3-one] | 7
O=C1CO[C@H]2CCN(C(=O)N3CC(c4ccc(-c5ccccc5OC(F)(F)F)cc4)C3)C[C@H]2N1 [Example 121, (4aR,8aS)-6-(3-(2′-(Trifluoromethoxy)-[1,1′-biphenyl]-4-yl)azetidine-1-carbonyl)hexahydro-2H-pyrido[4,3-b][1,4]oxazin-3(4H)-one] | 0.03
O=C1CO[C@H]2CCN(C(=O)N3CC(F)(c4ccc(Br)cc4)C3)C[C@H]2N1 [Example 122, (4aR,8aS)-6-(3-(4-Bromophenyl)-3-fluoroazetidine-1-carbonyl)hexahydro-2H-pyrido[4,3-b][1,4]oxazin-3(4H)-one] | 90
O=C1CO[C@H]2CCN(C(=O)N3CC(O)(c4ccc(Br)cc4)C3)C[C@H]2N1 [Example 123, (4aR,8aS)-6-(3-(4-Bromophenyl)-3-hydroxyazetidine-1-carbonyl)hexahydro-2H-pyrido[4,3-b][1,4]oxazin-3(4H)-one] | 226
CC1(c2ccc(Br)cc2)CN(C(=O)N2CC[C@@H]3OCC(=O)N[C@@H]3C2)C1 [Example 124, (4aR,8aS)-6-(3-(4-Bromophenyl)-3-methylazetidine-1-carbonyl)hexahydro-2H-pyrido[4,3-b][1,4]oxazin-3(4H)-one] | 113
O=C1CO[C@H]2CCN(C(=O)N3CC(c4ccc(-c5ccccc5C(F)(F)F)cc4)C3)C[C@H]2N1 [Example 125, (4aR,8aS)-6-(3-(2′-(Trifluoromethyl)-[1,1′-biphenyl]-4-yl)azetidine-1-carbonyl)hexahydro-2H-pyrido[4,3-b][1,4]oxazin-3(4H)-one] | 0.04
O=C1CO[C@H]2CCN(C(=O)N3CC(c4ccc(-c5ccc(F)cc5F)cc4)C3)C[C@H]2N1 [Example 126, (4aR,8aS)-6-(3-(2′,4′-Difluoro-[1,1′-biphenyl]-4-yl)azetidine-1-carbonyl)hexahydro-2H-pyrido[4,3-b][1,4]oxazin-3(4H)-one] | 0.3
N#Cc1ccccc1-c1ccc(C2CN(C(=O)N3CC[C@@H]4OCC(=O)N[C@@H]4C3)C2)cc1 [Example 127, 4′-(1-((4aR,8aS)-3-Cxooctahydro-2H-pyrido[4,3-b][1,4]oxazine-6-carbonyl)azetidin-3-yl)-[1,1′-biphenyl]-2-carbonitrile] | 0.5
COC1CN(c2ccc(C3CN(C(=O)N4CC[C@@H]5OCC(=O)N[C@@H]5C4)C3)cc2)C1 [Example 128, (4aR,8aS)-6-(3-(4-(3-Methoxyazetidin-1-yl)phenyl)azetidine-1-carbonyl)hexahydro-2H-pyrido[4,3-b][1,4]oxazin-3(4H)-one] | 45
O=C1CO[C@H]2CCN(C(=O)N3CC(c4ccc(N5CC(C(F)(F)F)C5)cc4)C3)C[C@H]2N1 [Example 129, (4aR,8aS)-6-(3-(4-(3-(Trifluoromethyl)azetidin-1-yl)phenyl)azetidine-1-carbonyl)hexahydro-2H-pyrido[4,3-b][1,4]oxazin-3(4H)-one] | 2
NC(=O)c1ccccc1-c1ccc(C2CN(C(=O)N3CC[C@@H]4OCC(=O)N[C@@H]4C3)C2)cc1 [Example 130, 2-[4-[1-[(4aR,8aS)-3-Oxo-4,4a,5,7,8,8a-hexahydropyrido[4,3-b][1,4]oxazine-6-carbonyl]azetidin-3-yl]phenyl]benzamide] | 4
O=C1CO[C@H]2CCN(C(=O)N3CC(c4ccc(-c5ccccc5)c(Cl)c4)C3)C[C@H]2N1 [Example 131, (4aR,8aS)-6-(3-(2-Chloro-[1,1′-biphenyl]-4-yl)azetidine-1-carbonyl)hexahydro-2H-pyrido[4,3-b][1,4]oxazin-3(4H)-one] | 0.4
O=C1CO[C@H]2CCN(C(=O)N3CC(c4ccc(Br)c(Cl)c4)C3)C[C@H]2N1 [Example 132, (4aR,8aS)-6-(3-(4-Bromo-3-chlorophenyl)azetidine-1-carbonyl)hexahydro-2H-pyrido[4,3-b][1,4]oxazin-3(4H)-one] | 10
